As a reminder, the pIC50 is −log10 of the IC50, conventionally taken in molar units.

The target in experiment [1] is T1, EIF2AK3 (PERK) catalytic domain (amino acids 536-1116) (Homo sapiens, UniProt Q9NZJ5).
T1 construct: EIF2AK3 (PERK) catalytic domain (amino acids 536-1116)
T1 sequence (Q9NZJ5 536-1116): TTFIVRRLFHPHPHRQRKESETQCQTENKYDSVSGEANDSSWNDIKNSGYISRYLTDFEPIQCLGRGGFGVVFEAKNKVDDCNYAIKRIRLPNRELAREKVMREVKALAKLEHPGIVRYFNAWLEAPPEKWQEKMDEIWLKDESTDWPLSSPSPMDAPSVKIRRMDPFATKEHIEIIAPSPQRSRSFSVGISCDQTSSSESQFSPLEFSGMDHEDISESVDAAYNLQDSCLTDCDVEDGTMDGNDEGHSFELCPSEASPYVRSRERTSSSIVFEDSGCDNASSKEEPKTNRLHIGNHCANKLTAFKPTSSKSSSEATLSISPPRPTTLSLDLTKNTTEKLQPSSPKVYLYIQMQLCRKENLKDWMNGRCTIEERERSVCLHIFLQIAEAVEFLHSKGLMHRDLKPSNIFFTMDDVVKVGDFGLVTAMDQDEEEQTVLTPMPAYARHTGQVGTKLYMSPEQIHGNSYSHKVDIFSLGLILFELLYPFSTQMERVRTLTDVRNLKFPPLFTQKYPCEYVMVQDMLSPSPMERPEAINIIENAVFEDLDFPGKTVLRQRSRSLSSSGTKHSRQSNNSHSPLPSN
Put plainly: PERK in vitro activity assay (isolated), TR-FRET kinase assay. Format: biochemical. As to conditions: isolated PERK enzyme, 1.5 μM ATP; read-out: Biochemical IC50. The gist of the method:
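TR-FRET read-out: after EDTA stop (10 mM final), Tb-labelled phospho-eIF2a antibody (2 nM) for 90 min; IC50 via 4-parameter nonlinear fit. Reaction: PERK aa 536-1116, GFP-eIF2a 100-200 nM, HEPES pH 7.5 with MgCl2/EGTA/Brij-35, 45 min, room temperature, started by enzyme.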
(Time-resolved FRET reads energy transfer from a long-lived donor to a nearby acceptor.)

Experiment [2] deals with GFP-eIF2α in HEK293 cells. As to the kind of experiment: PERK cellular assay, TR-FRET in HEK293-EGFP-eIF2a cells after tunicamycin-induced ER stress. Format: cell-based. The settings on record: HEK293-EGFP-eIF2a cells, tunicamycin 2 hours, read-out: Cellular eIF2α IC50. The gist of the method:
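Compounds were added 30 min before a 2 h tunicamycin ([…]) challenge of lentivirally made GFP-eIF2α HEK293 cells, 5000/well; lysate TR-FRET ratio was the read-out.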

pIC50: −log10 of the molar value. Where two headings read alike, the source gives them in different places.

As for `Cc1cc(NC(=O)Cc2ccc(F)cc2)ccc1-c1cn(C)c2ncnc(N)c12` [Example 140, N-(4-(4-amino-7-methyl-7H-pyrrolo[2,3-d]pyrimidin-5-yl)-3-methylphenyl)-2-(4-fluorophenyl)acetamide], the pIC50 in experiment [1] is 7.60 to 9.00; in experiment [2] (Homo sapiens, HEK293, 2 h) it was 7.30 to 7.59.
Turning to `Cc1cc(NC(=O)Cc2ccccc2C(F)(F)F)ccc1-c1cn(C)c2ncnc(N)c12` [Example 157, N-(4-(4-amino-7-methyl-7H-pyrrolo[2,3-d]pyrimidin-5-yl)-3-methylphenyl)-2-(2-(trifluoromethyl)phenyl)acetamide], the pIC50 is 7.60 to 9.00 in experiment [1] and 7.00 to 7.29 in experiment [2] (Homo sapiens, HEK293, 2 h).
As for `Cc1nc(N)c2c(-c3cc(F)c(NC(=O)C(O)c4cccc(F)c4)cc3F)cn(C)c2n1` (stereo not shown) [Example 123, N-(4-(4-amino-2,7-dimethyl-7H-pyrrolo[2,3-d]pyrimidin-5-yl)-2,5-difluorophenyl)-2-(3-fluorophenyl)-2-hydroxyacetamide], the pIC50 is 7.60 to 9.00 in experiment [1] and 7.30 to 7.59 in experiment [2] (Homo sapiens, HEK293, 2 h).
Consider `CCc1ccccc1CC(=O)Nc1ccc(-c2cn(C)c3ncnc(N)c23)c(C)c1` [Example 145, N-(4-(4-amino-7-methyl-7H-pyrrolo[2,3-d]pyrimidin-5-yl)-3-methylphenyl)-2-(2-ethylphenyl)acetamide], for which the pIC50 in experiment [1] is 7.60 to 9.00; in experiment [2] (Homo sapiens, HEK293, 2 h), 7.30 to 7.59.
Consider `CCc1nc(N)c2c(-c3ccc(NC(=O)C(O)c4cccc(F)c4)cc3C)cn(C)c2n1` (stereo not shown) [Example 67, N-(4-(4-amino-2-ethyl-7-methyl-7H-pyrrolo[2,3-d]pyrimidin-5-yl)-3-methylphenyl)-2-(3-fluorophenyl)-2-hydroxyacetamide], for which the pIC50 in experiment [1] was 6.60 to 7.00; in experiment [2] (Homo sapiens, HEK293, 2 h) it was 5.70 to 6.00.
For the compound `Cc1cc(NC(=O)C(O)c2cccc(F)c2)ccc1-c1cn(C)c2nc(C(C)C)nc(N)c12` (stereo not shown) [Example 25, N-(4-(4-amino-2-isopropyl-7-methyl-7H-pyrrolo[2,3-d]pyrimidin-5-yl)-3-methylphenyl)-2-(3-fluorophenyl)-2-hydroxyacetamide], the pIC50 was 6.60 to 7.00 in experiment [1] and less than 5.30 in experiment [2] (Homo sapiens, HEK293, 2 h).
Consider `CCc1cccc(C(O)C(=O)Nc2ccc(-c3cn(C)c4nc(C)nc(N)c34)c(Cl)c2)c1` (stereo not shown) [Example 98, N-(4-(4-amino-2,7-dimethyl-7H-pyrrolo[2,3-d]pyrimidin-5-yl)-3-chlorophenyl)-2-(3-ethylphenyl)-2-hydroxyacetamide], for which the pIC50 in experiment [1] was 7.00 to 7.29; in experiment [2], 6.30 to 6.60.
For the compound `Cc1nc(N)c2c(-c3ccc(NC(=O)C(O)c4ccccc4C)cc3Cl)cn(C)c2n1` (stereo not shown) [Example 94, N-(4-(4-amino-2,7-dimethyl-7H-pyrrolo[2,3-d]pyrimidin-5-yl)-3-chlorophenyl)-2-hydroxy-2-(o-tolyl)acetamide], the pIC50 in experiment [1] was 7.60 to 9.00; in experiment [2] it was 7.00 to 7.29.
As to `COc1cc(NC(=O)C(O)c2cccc(F)c2)ccc1-c1cn(C)c2nc(C)nc(N)c12` (single isomer, unassigned) [Example 105, N-(4-(4-amino-2,7-dimethyl-7H-pyrrolo[2,3-d]pyrimidin-5-yl)-3-methoxyphenyl)-2-(3-fluorophenyl)-2-hydroxyacetamide], the negative logarithm of the IC50 (pIC50) in experiment [1] and in experiment [2] was less than 5.30 throughout.
Turning to `Cc1nc(N)c2c(-c3ccc(NC(=O)C(O)c4cccc(F)c4)c(F)c3)cn(C)c2n1` (stereo not shown) [Example 90, N-(4-(4-amino-2,7-dimethyl-7H-pyrrolo[2,3-d]pyrimidin-5-yl)-2-fluorophenyl)-2-(3-fluorophenyl)-2-hydroxyacetamide], the pIC50 in experiment [1] is 7.60 to 9.00; in experiment [2], 7.30 to 7.59.
For `Cc1nc(N)c2c(-c3cc(F)c(NC(=O)C(O)c4cccc(F)c4)cc3C)cn(C)c2n1` (single isomer, unassigned) [Example 121, N-(4-(4-amino-2,7-dimethyl-7H-pyrrolo[2,3-d]pyrimidin-5-yl)-2-fluoro-5-methylphenyl)-2-(3-fluorophenyl)-2-hydroxyacetamide], in that order: 7.60 to 9.00 and 7.30 to 7.59.
As for `Cc1c(-c2cn(C)c3ncnc(N)c23)ccc(NC(=O)C(O)c2cccc(F)c2)c1F` (stereo not shown) [Example 118, N-(4-(4-amino-7-methyl-7H-pyrrolo[2,3-d]pyrimidin-5-yl)-2-fluoro-3-methylphenyl)-2-(3-fluorophenyl)-2-hydroxyacetamide], the results for the pIC50 in experiment [1] and in experiment [2] were 7.30 to 7.59 and 6.30 to 6.60, respectively.
For the compound `Cc1nc(N)c2c(-c3ccc(NC(=O)C(O)c4cccc(C(F)(F)F)n4)cc3C)cn(C)c2n1` (stereo not shown) [Example 61, N-(4-(4-amino-2,7-dimethyl-7H-pyrrolo[2,3-d]pyrimidin-5-yl)-3-methylphenyl)-2-hydroxy-2-(6-(trifluoromethyl)pyridin-2-yl)acetamide], the values for the pIC50 in experiment [1] and in experiment [2] were 6.60 to 7.00 and 6.00 to 6.30, respectively.
`Cc1cc(NC(=O)C(O)c2cccc(C(F)(F)F)c2)ccc1-c1cn(C)c2ncnc(N)c12` (stereo not shown) [Example 48, N-(4-(4-amino-7-methyl-7H-pyrrolo[2,3-d]pyrimidin-5-yl)-3-methylphenyl)-2-hydroxy-2-(3-(trifluoromethyl)phenyl)acetamide]: the pIC50 is 7.60 to 9.00 in experiment [1] and 7.00 to 7.29 in experiment [2].
With `Cc1cc(NC(=O)C(O)c2ccccc2C(F)(F)F)ccc1-c1cn(C)c2ncnc(N)c12` (stereo not shown) [Example 45, N-(4-(4-amino-7-methyl-7H-pyrrolo[2,3-d]pyrimidin-5-yl)-3-methylphenyl)-2-hydroxy-2-(2-(trifluoromethyl)phenyl)acetamide], the pIC50 in experiment [1] was 7.60 to 9.00; in experiment [2] (Homo sapiens, HEK293, 2 h) it was 6.60 to 7.00.
In the case of `Cc1cccc(C(O)C(=O)Nc2ccc(-c3cn(C)c4ncnc(N)c34)c(C)c2)c1` (stereo not shown) [Example 41, N-(4-(4-amino-7-methyl-7H-pyrrolo[2,3-d]pyrimidin-5-yl)-3-methylphenyl)-2-hydroxy-2-(m-tolyl)acetamide], the pIC50 in experiment [1] was 7.60 to 9.00; in experiment [2] (Homo sapiens, HEK293, 2 h) it was 7.60 to 9.00.
As to `Cc1cc(F)cc(C(O)C(=O)Nc2ccc(-c3cn(C)c4nc(C)nc(N)c34)c(F)c2)c1` (stereo not shown) [Example 85, N-(4-(4-amino-2,7-dimethyl-7H-pyrrolo[2,3-d]pyrimidin-5-yl)-3-fluorophenyl)-2-(3-fluoro-5-methylphenyl)-2-hydroxyacetamide], the pIC50 in experiment [1] and in experiment [2] was 7.60 to 9.00 in each case.
As to `Cc1nc(N)c2c(-c3cnc(NC(=O)C(O)c4cccc(C(F)(F)F)c4)cc3C)cn(C)c2n1` (stereo not shown) [Example 132, N-(5-(4-amino-2,7-dimethyl-7H-pyrrolo[2,3-d]pyrimidin-5-yl)-4-methylpyriidn-2-yl)-2-hydroxy-2-(3-(trifluoromethyl)phenyl)acetamide], the pIC50 is 7.60 to 9.00 in experiment [1] and 7.00 to 7.29 in experiment [2].
With `CCc1cccc(C(O)C(=O)Nc2ccc(-c3cn(C)c4nc(C)nc(N)c34)c(F)c2)c1` (stereo not shown) [Example 75, N-(4-(4-amino-2,7-dimethyl-7H-pyrrolo[2,3-d]pyrimidin-5-yl)-3-fluorophenyl)-2-(3-ethylphenyl)-2-hydroxyacetamide], the pIC50 in experiment [1] was 7.00 to 7.29; in experiment [2] it was 5.70 to 6.00.
For `Cc1nc(N)c2c(-c3ccc(NC(=O)C(O)c4cccc(F)c4)nc3C)cn(C)c2n1` (stereo not shown) [Example 127, N-(5-(4-amino-2,7-dimethyl-7H-pyrrolo[2,3-d]pyrimidin-5-yl)-6-methylpyridin-2-yl)-2-(3-fluorophenyl)-2-hydroxyacetamide], the pIC50 was 7.60 to 9.00 in experiment [1] and 6.60 to 7.00 in experiment [2].
Take `Cc1nc(N)c2c(-c3ccc(NC(=O)C(O)c4cccc(C(F)(F)F)c4)c(F)c3F)cn(C)c2n1` (stereo not shown) [Example 107, N-(4-(4-amino-2,7-dimethyl-7H-pyrrolo[2,3-d]pyrimidin-5-yl)-2,3-difluorophenyl)-2-hydroxy-2-(3-(trifluoromethyl)phenyl)acetamide]: the pIC50 in experiment [1] and in experiment [2] was 7.60 to 9.00 throughout.
Regarding `Cc1nc(N)c2c(-c3ccc(NC(=O)C(O)c4cccc(F)c4)c(F)c3F)cn(C)c2n1` (single isomer, unassigned) [Example 109, N-(4-(4-amino-2,7-dimethyl-7H-pyrrolo[2,3-d]pyrimidin-5-yl)-2,3-difluorophenyl)-2-(3-fluorophenyl)-2-hydroxyacetamide], the values for the negative-log IC50 (pIC50) in experiment [1] and in experiment [2] were 6.30 to 6.60 and 5.70 to 6.00, respectively.
On to `Cc1cccc(CC(=O)Nc2ccc(-c3cn(C)c4nc(C)nc(N)c34)c(C)c2)n1` [Example 135, N-(4-(4-amino-2,7-dimethyl-7H-pyrrolo[2,3-d]pyrimidin-5-yl)-3-methylphenyl)-2-(6-methylpyridin-2-yl)acetamide], for which the pIC50 in experiment [1] was 7.30 to 7.59; in experiment [2] (Homo sapiens, HEK293, 2 h) it was 6.30 to 6.60.

(Values after US20220356186A1, “PERK INHIBITING PYRROLOPYRIMIDINE COMPOUNDS” (HiberCell, Inc., priority 2019, published 2022).)
